Reference: patent US9255295B2, “Method for evaluating the sensitizing potential of a test compound” (IMMUNOSEARCH, priority 2010, dated 2016)
Where two headings read alike, the source gives them in different places.

Columns and labels:
[1] = system: ARE gene family (AKR1B10, AKR1C1, AKR1C2, CYP1B1, FTH1P, FTL, G6PD, GCLM, NQO2, SLC7A11, TXNRD1, UGT1A1, UGT1A9, YWHAZ, CD36, CYP1A1, GCLC, HMOX1, NQO1, PSME2 …)
EPISKIN model = assay: Sensitizing power: sensitizing potential retested at successive dilutions in the EPISKIN model

## O=CC=O [Glyoxal]
[1]; 0.1%
  AHR NUMBER OF GENES grade: 0 (if this expression is lower, the grade is 0)
  AKR1B10 NUMBER OF GENES grade: 0 (if this expression is lower, the grade is 0)
  AKR1C1 NUMBER OF GENES grade: 0 (if this expression is lower, the grade is 0)
  AKR1C2 NUMBER OF GENES grade: 0 (if this expression is lower, the grade is 0)
  ARE >1.3 (number of genes): 0
  CD36 NUMBER OF GENES grade: 0 (if this expression is lower, the grade is 0)
  CYP1A1 NUMBER OF GENES grade: 0 (if this expression is lower, the grade is 0)
  CYP1B1 NUMBER OF GENES grade: 0 (if this expression is lower, the grade is 0)
  FTH1P NUMBER OF GENES grade: 0 (if this expression is lower, the grade is 0)
  FTL NUMBER OF GENES grade: 0 (if this expression is lower, the grade is 0)
  GCLC NUMBER OF GENES grade: 0 (if this expression is lower, the grade is 0)
  GCLM NUMBER OF GENES grade: 0 (if this expression is lower, the grade is 0)
  HMOX1 NUMBER OF GENES grade: 0 (if this expression is lower, the grade is 0)
  NQO1 NUMBER OF GENES grade: 0 (if this expression is lower, the grade is 0)
  NQO2 NUMBER OF GENES grade: 0 (if this expression is lower, the grade is 0)
  S100A8 NUMBER OF GENES grade: 0 (if this expression is lower, the grade is 0)
  SLC7A11 NUMBER OF GENES grade: 0 (if this expression is lower, the grade is 0)
  TOTAL ARE (number of genes): 0
  TXNRD1 NUMBER OF GENES grade: 0 (if this expression is lower, the grade is 0)
  UGT1A1 NUMBER OF GENES grade: 0 (if this expression is lower, the grade is 0)
  UGT1A9 NUMBER OF GENES grade: 0 (if this expression is lower, the grade is 0)
[1]; 0.1%, compared to the control
  AHR expression: 0.9
  AKR1B10 expression: 0.6
  AKR1C1 expression: 0.8
  AKR1C2 expression: 0.8
  CD36 expression: 1.1
  CYP1A1 expression: 0.6
  CYP1B1 expression: 0.6
  FTH1P expression: 0.9
  FTL expression: 1.0
  GCLC expression: 1.0
  GCLM expression: 0.9
  HMOX1 expression: 1.0
  NQO1 expression: 1.0
  NQO2 expression: 0.8
  S100A8 expression: 0.7
  SLC7A11 expression: 1.0
  TXNRD1 expression: 1.0
  UGT1A1 expression: 0.9
  UGT1A9 expression: 0.3
[1]; 1%
  AHR NUMBER OF GENES grade: 0 (if this expression is lower, the grade is 0)
  AKR1B10 NUMBER OF GENES grade: 0 (if this expression is lower, the grade is 0)
  AKR1C1 NUMBER OF GENES grade: 0 (if this expression is lower, the grade is 0)
  AKR1C2 NUMBER OF GENES grade: 0 (if this expression is lower, the grade is 0)
  ARE >1.3 (number of genes): 1
  CD36 expression compared to control: 1.1
  CD36 grade (NUMBER OF GENES): 0 (if this expression is lower, the grade is 0)
  CYP1A1 NUMBER OF GENES grade: 0 (if this expression is lower, the grade is 0)
  CYP1B1 NUMBER OF GENES grade: 0 (if this expression is lower, the grade is 0)
  FTH1P NUMBER OF GENES grade: 0 (if this expression is lower, the grade is 0)
  FTL NUMBER OF GENES grade: 0 (if this expression is lower, the grade is 0)
  GCLC NUMBER OF GENES grade: 0 (if this expression is lower, the grade is 0)
  GCLM NUMBER OF GENES grade: 0 (if this expression is lower, the grade is 0)
  HMOX1 NUMBER OF GENES grade: 0 (if this expression is lower, the grade is 0)
  NQO1 NUMBER OF GENES grade: 0 (if this expression is lower, the grade is 0)
  NQO2 NUMBER OF GENES grade: 0 (if this expression is lower, the grade is 0)
  S100A8 expression compared to control: 0.9
  S100A8 grade (NUMBER OF GENES): 0 (if this expression is lower, the grade is 0)
  SLC7A11 NUMBER OF GENES grade: 1 (If the expression is greater than 1.3 compared to the control, a grade of 11s given)
  TOTAL ARE (number of genes): 1
  TXNRD1 NUMBER OF GENES grade: 0 (if this expression is lower, the grade is 0)
  UGT1A1 NUMBER OF GENES grade: 0 (if this expression is lower, the grade is 0)
  UGT1A9 NUMBER OF GENES grade: 0 (if this expression is lower, the grade is 0)
[1]; 1%, compared to the control
  AHR expression: 1.1
  AKR1B10 expression: 1.1
  AKR1C1 expression: 1.0
  AKR1C2 expression: 1.0
  CYP1A1 expression: 0.9
  CYP1B1 expression: 1.1
  FTH1P expression: 1.0
  FTL expression: 1.1
  GCLC expression: 1.1
  GCLM expression: 0.9
  HMOX1 expression: 0.9
  NQO1 expression: 1.1
  NQO2 expression: 1.0
  SLC7A11 expression: 1.4
  TXNRD1 expression: 0.9
  UGT1A1 expression: 1.2
  UGT1A9 expression: 0.6
[1]; 10%
  AHR NUMBER OF GENES grade: 0 (if this expression is lower, the grade is 0)
  AKR1B10 NUMBER OF GENES grade: 0 (if this expression is lower, the grade is 0)
  AKR1C1 NUMBER OF GENES grade: 0 (if this expression is lower, the grade is 0)
  AKR1C2 NUMBER OF GENES grade: 0 (if this expression is lower, the grade is 0)
  ARE >1.3 (number of genes): 3
  CD36 expression compared to control: 1.3
  CD36 grade (NUMBER OF GENES): 1 (If the expression is greater than 1.3 compared to the control, a grade of 11s given)
  CYP1A1 NUMBER OF GENES grade: 0 (if this expression is lower, the grade is 0)
  CYP1B1 NUMBER OF GENES grade: 0 (if this expression is lower, the grade is 0)
  FTH1P NUMBER OF GENES grade: 0 (if this expression is lower, the grade is 0)
  FTL NUMBER OF GENES grade: 0 (if this expression is lower, the grade is 0)
  GCLC NUMBER OF GENES grade: 0 (if this expression is lower, the grade is 0)
  GCLM NUMBER OF GENES grade: 1 (If the expression is greater than 1.3 compared to the control, a grade of 11s given)
  HMOX1 NUMBER OF GENES grade: 0 (if this expression is lower, the grade is 0)
  NQO1 NUMBER OF GENES grade: 0 (if this expression is lower, the grade is 0)
  NQO2 NUMBER OF GENES grade: 0 (if this expression is lower, the grade is 0)
  S100A8 expression compared to control: 0.9
  S100A8 grade (NUMBER OF GENES): 0 (if this expression is lower, the grade is 0)
  SLC7A11 NUMBER OF GENES grade: 1 (If the expression is greater than 1.3 compared to the control, a grade of 11s given)
  TOTAL ARE (number of genes): 3
  TXNRD1 NUMBER OF GENES grade: 1 (If the expression is greater than 1.3 compared to the control, a grade of 11s given)
  UGT1A1 NUMBER OF GENES grade: 0 (if this expression is lower, the grade is 0)
  UGT1A9 NUMBER OF GENES grade: 0 (if this expression is lower, the grade is 0)
[1]; 10%, compared to the control
  AHR expression: 1.0
  AKR1B10 expression: 0.7
  AKR1C1 expression: 1.0
  AKR1C2 expression: 1.2
  CYP1A1 expression: 0.0
  CYP1B1 expression: 0.8
  FTH1P expression: 1.1
  FTL expression: 1.1
  GCLC expression: 1.1
  GCLM expression: 1.7
  HMOX1 expression: 1.0
  NQO1 expression: 1.2
  NQO2 expression: 1.0
  SLC7A11 expression: 1.9
  TXNRD1 expression: 1.3
  UGT1A1 expression: 1.0
  UGT1A9 expression: 0.2
[1]; 50%
  AHR NUMBER OF GENES grade: 0 (if this expression is lower, the grade is 0)
  AKR1B10 NUMBER OF GENES grade: 0 (if this expression is lower, the grade is 0)
  AKR1C1 NUMBER OF GENES grade: 0 (if this expression is lower, the grade is 0)
  AKR1C2 NUMBER OF GENES grade: 0 (if this expression is lower, the grade is 0)
  ARE >1.3 (number of genes): 6
  CD36 expression compared to control: 1.1
  CD36 grade (NUMBER OF GENES): 0 (if this expression is lower, the grade is 0)
  CYP1A1 NUMBER OF GENES grade: 0 (if this expression is lower, the grade is 0)
  CYP1B1 NUMBER OF GENES grade: 1 (If the expression is greater than 1.3 compared to the control, a grade of 11s given)
  FTH1P NUMBER OF GENES grade: 0 (if this expression is lower, the grade is 0)
  FTL NUMBER OF GENES grade: 0 (if this expression is lower, the grade is 0)
  GCLC NUMBER OF GENES grade: 0 (if this expression is lower, the grade is 0)
  GCLM NUMBER OF GENES grade: 1 (If the expression is greater than 1.3 compared to the control, a grade of 11s given)
  HMOX1 NUMBER OF GENES grade: 1 (If the expression is greater than 1.3 compared to the control, a grade of 11s given)
  NQO1 NUMBER OF GENES grade: 0 (if this expression is lower, the grade is 0)
  NQO2 NUMBER OF GENES grade: 0 (if this expression is lower, the grade is 0)
  S100A8 expression compared to control: 0.9
  S100A8 grade (NUMBER OF GENES): 0 (if this expression is lower, the grade is 0)
  SLC7A11 NUMBER OF GENES grade: 0 (if this expression is lower, the grade is 0)
  TOTAL ARE (number of genes): 6
  TXNRD1 NUMBER OF GENES grade: 1 (If the expression is greater than 1.3 compared to the control, a grade of 11s given)
  UGT1A1 NUMBER OF GENES grade: 1 (If the expression is greater than 1.3 compared to the control, a grade of 11s given)
  UGT1A9 NUMBER OF GENES grade: 1 (If the expression is greater than 1.3 compared to the control, a grade of 11s given)
[1]; 50%, compared to the control
  AHR expression: 0.9
  AKR1B10 expression: 0.8
  AKR1C1 expression: 0.8
  AKR1C2 expression: 0.9
  CYP1A1 expression: 1.1
  CYP1B1 expression: 3.3
  FTH1P expression: 0.9
  FTL expression: 0.9
  GCLC expression: 0.9
  GCLM expression: 1.5
  HMOX1 expression: 1.4
  NQO1 expression: 0.9
  NQO2 expression: 0.9
  SLC7A11 expression: 1.0
  TXNRD1 expression: 1.4
  UGT1A1 expression: 1.4
  UGT1A9 expression: 1.3
EPISKIN model; 0.1%
  sensitizing potential (conclusion): Sensitizing
EPISKIN model; 1%
  sensitizing potential (conclusion): Sensitizing
EPISKIN model; 10%
  sensitizing potential (conclusion): Sensitizing
EPISKIN model; 50%
  sensitizing potential (conclusion): Sensitizing
EPISKIN model; from successive dilutions
  sensitizing power (class): MODERATE
